The source of these data is patent US10874650B1 (Ferrer Medical Innovations, LLC, priority 2020, dated 2020).

Structures can show the parent of a compound that is named as a salt. Marks after values point to notes of the source that are not given here.

The subject of test [1] is avian H7N9 influenza virus. Conditions: mice; cited from earlier work.
The subject of test [2] is divergent influenza A strains and influenza B strain. Conditions: cited from earlier work.
Test [3] relates to SARS-CoV-2, USA-WA1/2020 strain. In kind it is cell-based. Conditions: nasal spray 90%, ethanol 67.5%.

`CN(C)CCC(c1ccc(Cl)cc1)c1ccccn1` (stereo not shown) [Chlorpheniramine, chlorpheniramine maleate]: in test [1], the “protection from fatal challenge” value is listed as “protects mice from fatal challenge”. In addition, the “inhibitory activity against influenza” value in test [2] is “potent inhibitory activity”.
`CCO` [Ethanol]: the “Virus Titer” value in test [3] (after 25 minutes incubation with virus at 22±2° C., average of three replicates ± standard deviation) is reported as 1.0 ± 0.6 Log10 CCID50/mL. Also, the “Log Reduction Value” in test [3] (reduction of virus compared with virus control (water), 25 minutes incubation at 22±2° C.) is on record as 3.2***.
